{"source": "patent US20220281848A1", "about": "“PYRAZOLE-SUBSTITUTED PYRROLIDINONES AS HERBICIDES” (FMC Corporation, priority 2019, published 2022)", "test_system": "plants", "experiment": "Test D pre-emergence, other plants of Tables D1 and D3", "type": "in vivo", "conditions": "for damage to plant (100=total damage to plant; 0=no damage to plant), SORVU: preemergent, 20 DAA; for damage to plant, ALOMY / damage to plant, AVEFA / damage to plant, BEAVA / damage to plant, BROTE / damage to plant, BRSNN / damage to plant, CHEAL / damage to plant, GALAP / damage to plant, HORVW / damage to plant, KCHSC / damage to plant, LOLPE / damage to plant, POAAN / damage to plant, POLCO / damage to plant, SINAR / damage to plant, STEME / damage to plant, VERPE: pre-emergence, 100=total damage, 0=no damage", "protocol": "A formulation containing 50 g/L of the test chemical was prepared by dissolving the active ingredient in a mixture of organic solvents and emulsifier, details of which are provided in the table. This formulation was then mixed with a small, variable amount of acetone to aid dissolution, before addition of a 0.2% v/v aqueous solution of an adjuvant, as the aqueous diluent, to form an aqueous spray solution which contains a predetermined concentration of the active ingredient.\nThis aqueous spray solution was then sprayed onto plants including maize and wheat that had been seed treated with a herbicide safener, after one day's cultivation (for pre-emergence) or after about 12 days' cultivation (for post-emergence). The plants were grown from seeds sown in standard soil, placed in a glasshouse under controlled conditions (at 24/18° C. or 20/16° C., day/night; 16 h light; 65% humidity). After spray application the plants were then grown in a glasshouse under the same conditions and watered twice daily. After 15 d for post-emergence and 20 DAA for pre-emergence the test was evaluated (100=total damage to plant; 0=no damage to plant)."}
{"smiles": "CCn1nc([C@H]2CN(C)C(=O)[C@@H]2C(=O)Nc2cccc(F)c2F)c2c(F)cccc21", "note": "[Compound 7]", "values": [{"measurement": "damage to plant (100=total damage to plant; 0=no damage to plant), SORVU", "setting": "rate 130", "result": 20}, {"measurement": "damage to plant (100=total damage to plant; 0=no damage to plant), SORVU", "setting": "rate 250", "result": 70}, {"measurement": "damage to plant (100=total damage to plant; 0=no damage to plant), SORVU", "setting": "rate 500", "result": 80}, {"measurement": "damage to plant, ALOMY", "setting": "rate 15, 20 DAA", "result": 0}, {"measurement": "damage to plant, AVEFA", "setting": "rate 15, 20 DAA", "result": 0}, {"measurement": "damage to plant, BEAVA", "setting": "rate 15, 20 DAA", "result": 0}, {"measurement": "damage to plant, BROTE", "setting": "rate 15, 20 DAA", "result": 0}, {"measurement": "damage to plant, BRSNN", "setting": "rate 15, 20 DAA", "result": 0}, {"measurement": "damage to plant, CHEAL", "setting": "rate 15, 20 DAA", "result": 0}, {"measurement": "damage to plant, GALAP", "setting": "rate 15, 20 DAA", "result": 0}, {"measurement": "damage to plant, HORVW", "setting": "rate 15, 20 DAA", "result": 0}, {"measurement": "damage to plant, KCHSC", "setting": "rate 15, 20 DAA", "result": 0}, {"measurement": "damage to plant, LOLPE", "setting": "rate 15, 20 DAA", "result": 0}, {"measurement": "damage to plant, POAAN", "setting": "rate 15, 20 DAA", "result": 0}, {"measurement": "damage to plant, POLCO", "setting": "rate 15, 20 DAA", "result": 0}, {"measurement": "damage to plant, SINAR", "setting": "rate 15, 20 DAA", "result": 0}, {"measurement": "damage to plant, STEME", "setting": "rate 15, 20 DAA", "result": 0}, {"measurement": "damage to plant, VERPE", "setting": "rate 15, 20 DAA", "result": 0}, {"measurement": "damage to plant, ALOMY", "setting": "rate 30, 20 DAA", "result": 0}, {"measurement": "damage to plant, AVEFA", "setting": "rate 30, 20 DAA", "result": 0}, {"measurement": "damage to plant, BEAVA", "setting": "rate 30, 20 DAA", "result": 0}, {"measurement": "damage to plant, BROTE", "setting": "rate 30, 20 DAA", "result": 0}, {"measurement": "damage to plant, BRSNN", "setting": "rate 30, 20 DAA", "result": 0}, {"measurement": "damage to plant, CHEAL", "setting": "rate 30, 20 DAA", "result": 0}, {"measurement": "damage to plant, GALAP", "setting": "rate 30, 20 DAA", "result": 0}, {"measurement": "damage to plant, HORVW", "setting": "rate 30, 20 DAA", "result": 0}, {"measurement": "damage to plant, KCHSC", "setting": "rate 30, 20 DAA", "result": 0}, {"measurement": "damage to plant, LOLPE", "setting": "rate 30, 20 DAA", "result": 0}, {"measurement": "damage to plant, POAAN", "setting": "rate 30, 20 DAA", "result": 0}, {"measurement": "damage to plant, POLCO", "setting": "rate 30, 20 DAA", "result": 0}, {"measurement": "damage to plant, SINAR", "setting": "rate 30, 20 DAA", "result": 0}, {"measurement": "damage to plant, STEME", "setting": "rate 30, 20 DAA", "result": 0}, {"measurement": "damage to plant, VERPE", "setting": "rate 30, 20 DAA", "result": 0}, {"measurement": "damage to plant, ALOMY", "setting": "rate 60, 20 DAA", "result": 0}, {"measurement": "damage to plant, AVEFA", "setting": "rate 60, 20 DAA", "result": 0}, {"measurement": "damage to plant, BEAVA", "setting": "rate 60, 20 DAA", "result": 0}, {"measurement": "damage to plant, BROTE", "setting": "rate 60, 20 DAA", "result": 0}, {"measurement": "damage to plant, BRSNN", "setting": "rate 60, 20 DAA", "result": 0}, {"measurement": "damage to plant, CHEAL", "setting": "rate 60, 20 DAA", "result": 0}, {"measurement": "damage to plant, GALAP", "setting": "rate 60, 20 DAA", "result": 0}, {"measurement": "damage to plant, HORVW", "setting": "rate 60, 20 DAA", "result": 0}, {"measurement": "damage to plant, KCHSC", "setting": "rate 60, 20 DAA", "result": 0}, {"measurement": "damage to plant, LOLPE", "setting": "rate 60, 20 DAA", "result": 0}, {"measurement": "damage to plant, POAAN", "setting": "rate 60, 20 DAA", "result": 0}, {"measurement": "damage to plant, POLCO", "setting": "rate 60, 20 DAA", "result": 0}, {"measurement": "damage to plant, SINAR", "setting": "rate 60, 20 DAA", "result": 0}, {"measurement": "damage to plant, STEME", "setting": "rate 60, 20 DAA", "result": 0}, {"measurement": "damage to plant, VERPE", "setting": "rate 60, 20 DAA", "result": 0}, {"measurement": "damage to plant, ALOMY", "setting": "rate 130, 20 DAA", "result": 0}, {"measurement": "damage to plant, AVEFA", "setting": "rate 130, 20 DAA", "result": 10}, {"measurement": "damage to plant, BEAVA", "setting": "rate 130, 20 DAA", "result": 0}, {"measurement": "damage to plant, BROTE", "setting": "rate 130, 20 DAA", "result": 0}, {"measurement": "damage to plant, BRSNN", "setting": "rate 130, 20 DAA", "result": 0}, {"measurement": "damage to plant, CHEAL", "setting": "rate 130, 20 DAA", "result": 0}, {"measurement": "damage to plant, GALAP", "setting": "rate 130, 20 DAA", "result": 0}, {"measurement": "damage to plant, HORVW", "setting": "rate 130, 20 DAA", "result": 0}, {"measurement": "damage to plant, KCHSC", "setting": "rate 130, 20 DAA", "result": 0}, {"measurement": "damage to plant, LOLPE", "setting": "rate 130, 20 DAA", "result": 0}, {"measurement": "damage to plant, POAAN", "setting": "rate 130, 20 DAA", "result": 0}, {"measurement": "damage to plant, POLCO", "setting": "rate 130, 20 DAA", "result": 0}, {"measurement": "damage to plant, SINAR", "setting": "rate 130, 20 DAA", "result": 0}, {"measurement": "damage to plant, STEME", "setting": "rate 130, 20 DAA", "result": 0}, {"measurement": "damage to plant, VERPE", "setting": "rate 130, 20 DAA", "result": 0}, {"measurement": "damage to plant, ALOMY", "setting": "rate 250, 20 DAA", "result": 0}, {"measurement": "damage to plant, AVEFA", "setting": "rate 250, 20 DAA", "result": 20}, {"measurement": "damage to plant, BEAVA", "setting": "rate 250, 20 DAA", "result": 0}, {"measurement": "damage to plant, BROTE", "setting": "rate 250, 20 DAA", "result": 0}, {"measurement": "damage to plant, BRSNN", "setting": "rate 250, 20 DAA", "result": 0}, {"measurement": "damage to plant, CHEAL", "setting": "rate 250, 20 DAA", "result": 0}, {"measurement": "damage to plant, GALAP", "setting": "rate 250, 20 DAA", "result": 0}, {"measurement": "damage to plant, HORVW", "setting": "rate 250, 20 DAA", "result": 0}, {"measurement": "damage to plant, KCHSC", "setting": "rate 250, 20 DAA", "result": 0}, {"measurement": "damage to plant, LOLPE", "setting": "rate 250, 20 DAA", "result": 0}, {"measurement": "damage to plant, POAAN", "setting": "rate 250, 20 DAA", "result": 0}, {"measurement": "damage to plant, POLCO", "setting": "rate 250, 20 DAA", "result": 0}, {"measurement": "damage to plant, SINAR", "setting": "rate 250, 20 DAA", "result": 0}, {"measurement": "damage to plant, STEME", "setting": "rate 250, 20 DAA", "result": 0}, {"measurement": "damage to plant, VERPE", "setting": "rate 250, 20 DAA", "result": 0}, {"measurement": "damage to plant, ALOMY", "setting": "rate 500, 20 DAA", "result": 0}, {"measurement": "damage to plant, AVEFA", "setting": "rate 500, 20 DAA", "result": 50}, {"measurement": "damage to plant, BEAVA", "setting": "rate 500, 20 DAA", "result": 0}, {"measurement": "damage to plant, BROTE", "setting": "rate 500, 20 DAA", "result": 0}, {"measurement": "damage to plant, BRSNN", "setting": "rate 500, 20 DAA", "result": 0}, {"measurement": "damage to plant, CHEAL", "setting": "rate 500, 20 DAA", "result": 0}, {"measurement": "damage to plant, GALAP", "setting": "rate 500, 20 DAA", "result": 0}, {"measurement": "damage to plant, HORVW", "setting": "rate 500, 20 DAA", "result": 0}, {"measurement": "damage to plant, KCHSC", "setting": "rate 500, 20 DAA", "result": 0}, {"measurement": "damage to plant, LOLPE", "setting": "rate 500, 20 DAA", "result": 0}, {"measurement": "damage to plant, POAAN", "setting": "rate 500, 20 DAA", "result": 0}, {"measurement": "damage to plant, POLCO", "setting": "rate 500, 20 DAA", "result": 0}, {"measurement": "damage to plant, SINAR", "setting": "rate 500, 20 DAA", "result": 0}, {"measurement": "damage to plant, STEME", "setting": "rate 500, 20 DAA", "result": 0}, {"measurement": "damage to plant, VERPE", "setting": "rate 500, 20 DAA", "result": 0}]}
